Source: patent publication US9636317B2, “Compositions and methods of use of phorbol esters” (priority 2007, dated 2017)
Values joined by “and” are separate entries in the source; they are usually repeats but may differ in a detail not shown here. Equal entries are not always repeated.

Assays:
HIV = assay: First clinical study of HIV+ patients: blood HIV count; format: in vivo
Experimental: Twelve symptomatic patients (five males and seven females) between the ages of 35 to 52 all of whom were infected with HIV in 1995 through blood transfusion and were refractory to standard treatments for HIV were treated with TPA. Each patient was administered a weight adjusted dosage of TPA (75 μg/sq m) in 200 ml of sterile saline by i.v. over one hour. This dose was administered once daily for the first three days of treatment. Each patient was then given this dose every other day for days 4 to 18 followed by a six month rest period prior to a second course of treatment according to the same protocol.

[1] = Second clinical study of HIV+ patients: periphery blood count; format: in vivo, human; conditions: one value per patient
Experimental: Nine of the patients in Example III were given a second treatment of TPA. Of these nine, seven were asymptomatic at the beginning of the second trial. A tenth patient (patient #2a) who was symptomatic and had not previously been treated with TPA was added to the study. Each patient was administered a weight adjusted dosage of TPA (75 μg/sq m) in 200 ml of sterile saline intravenously over one hour. This dosage was given to each patient once a day for ten consecutive days followed by a rest period of ten days for three cycles and a total of 30 doses of TPA. Patients 5a, 6a, and 8a stopped taking anti-AIDS drugs one month prior to beginning the TPA treatment and beginning again one month after the third cycle. Patients 1-4-a, 7a, and 9a-10a continued taking anti-AIDS drugs throughout the treatment.
Blood samples were taken three days prior to starting treatment, after completing the first 10 day cycle of TPA infusion and again after the last TPA infusion and CD3, CD4, CD8, WBC, RBC, HGB and platelets were measured.

[2] = system: pancreatic cancer, non-small-cell lung cancer, nasopharyngeal carcinoma; assay: TPA as an adjuvant to traditional neoplasm treatments (patient cases); format: in vivo, human
Experimental: Patient three was diagnosed with terminal metastasized pancreatic cancer. They received five injections of 0.18 mg TPA (0.125 mg/m^2) per week for 12 weeks in addition to chemotherapy.
Patient nine was diagnosed with non-small-cell lung cancer. The cancer had metastasized and was refractory to Tarceva® (erlotinib) and Iressa™ (gefitinib). The patient was treated with a combination of gemcitabine and cisplatin according to standard protocols accompanied by an injection of 0.19 mg of TPA (0.125 mg/m^2) each weekday for eight weeks. […] They have been in remission since Jun. 30, 2010.
Patient thirteen was diagnosed with terminal nasopharyngeal carcinoma and treated with both chemotherapy and radiotherapy. They received injections of 0.19 mg of TPA (0.125 mg/m^2) of TPA a day for five days prior to beginning radiotherapy and then 0.19 mg of TPA (0.125 mg/m^2) every other day for a total of 20 injections.

[3] = Treatment of individuals who have suffered a stroke (patient cases); format: in vivo, human
Experimental: Patient seven, suffered a stroke eighteen months prior to treatment with TPA. At the time TPA treatment was initiated, they were unable to walk without a cane, had difficulty with both their left hand and left leg and was tired and weak. They received injections of 1 ampoule containing 0.19 mg of TPA (0.125 mg/m^2) every other day for four weeks, then 0.24 mg of TPA (1.25×0.125 mg/m^2) every other day for 2 weeks, and then 0.26 mg of TPA (1.5×0.125 mg/m^2) every other day for an additional 3 weeks.
Patient four, suffered a stroke seven years prior to beginning treatment with TPA. They received 3-4 injections of 0.19 mg of TPA (0.125 mg/m^2) per week for ten weeks for a total of 35 injections.

terminal lung cancer = assay: Treatment of lung cancer (patient case); format: in vivo, human; conditions: 35 injections, 0.19 to 0.26 mg TPA three to four times a week
From the text: Patient ten was diagnosed with terminal lung cancer which was refractory to chemotherapy. The cancer metastasized into their bones leaving them unable to walk.

[4] = Treatment of rheumatoid arthritis (patient case); format: in vivo, human; conditions: multiple injections of TPA
[5] = system: CD3, CD4 and CD8 levels in peripheral blood; assay: Third clinical study of HIV+ patients: CD3, CD4, CD8 by flow cytometry; format: in vivo, human; set-up: unit not given here; conditions: one value per patient
Experimental: Six patients, two males and four females between the ages of 37 and 52 years of age (Patients #13-18), were treated with TPA. Four of these patients previously received TPA treatment in combination with anti-HIV drugs in the two previous clinical studies. The two remaining patients had never been treated with TPA, but had previously received anti-HIV drug regimens. All treatments were stopped three days prior to the initiation of the third clinical study and were not resumed until 60 days after completion of the TPA treatment. The resumption of the standard HIV treatments was required by local health authorities.
Each patient in the study received 150 μg of TPA in 200 ml of sterile saline by intravenous infusion over a 1.5 to 2 hour period daily for 60 days for a total administered dose of 9.0 mg. Following completion of the 60 days of TPA therapy, these patients remained under observation for an additional 60 days though the received no further treatment.
CD3, CD4 and CD8 levels in peripheral blood were quantitated prior to starting treatment, and again at 30 and 60 days using flow cytometry and the appropriate antibodies obtained from B.D. Bioscience, San Diego, Calif. Viral load was determined using conventional methods at Kuang Ann men Hospital, Beijing, China. Patients RBC, WBC, platelets and hemoglobin levels were also measured.

[6] = Treatment of carpal tunnel syndrome (patient case); format: in vivo, human
From the text: Patient with burning, tingling, pain and numbness in their fingers.

[7] = 15th day during TPA (patient 07)
[8] = 4 days after initial TPA, one value per patient
[9] = 15 days after initial TPA, one value per patient
[10] = 25 days after initial TPA, one value per patient
[11] = After first 10-day TPA infusing
[12] = After third 10-day TPA infusing

**Q.** For CCCCCCCCCCCCCC(=O)O[C@@H]1[C@@H](C)[C@@]2(O)[C@@H](C=C(CO)C[C@]3(O)C(=O)C(C)=C[C@@H]23)[C@@H]2C(C)(C)[C@]12OC(C)=O [TPA, 12-O-tetradecanoylphorbol-13-acetate], which “BLOOD HIV COUNT LOG VALUE” (HIV; [7]) is on record?
**A.** 4.988

**Q.** What about the “BLOOD HIV COUNT RESULTS” value (HIV; [7]) of the same compound?
**A.** 9.74 × 10^4 copies/ml

**Q.** What about the “BLOOD HIV COUNT LOG VALUE” (HIV; [8]) of the same compound?
**A.** 6.899 and 4.910 and 7.243 and 5.974 and 4.160 and 5.179 and 5.959 and 6.151

**Q.** And the “BLOOD HIV COUNT RESULTS” value (HIV; [8])?
**A.** 7.92 × 10^6 copies/ml and 8.13 × 10^4 copies/ml and 1.75 × 10^7 copies/ml and 9.42 × 10^5 copies/ml and 1.44 × 10^4 copies/ml and 1.51 × 10^5 copies/ml and 9.09 × 10^5 copies/ml and 1.41 × 10^4 copies/ml

**Q.** What about the “BLOOD HIV COUNT LOG VALUE” (HIV; 7 days after TPA (patient 06)) of the same compound?
**A.** 6.357

**Q.** What about the “BLOOD HIV COUNT RESULTS” value (HIV; 7 days after TPA (patient 06)) of the same compound?
**A.** 2.28 × 10^6 copies/ml

**Q.** And the “BLOOD HIV COUNT LOG VALUE” (HIV; [9])?
**A.** 4.306 and 6.801 and 3.786 and 6.614 and 7.369 and 5.274 and 6.737

**Q.** And the “BLOOD HIV COUNT RESULTS” value (HIV; [9])?
**A.** 2.02 × 10^4 copies/ml and 6.33 × 10^6 copies/ml and 6.11 × 10^3 copies/ml and 1.11 × 10^6 copies/ml and 2.34 × 10^7 copies/ml and 1.88 × 10^5 copies/ml and 5.46 × 10^6 copies/ml

**Q.** What about the “BLOOD HIV COUNT LOG VALUE” (HIV; [10]) of the same compound?
**A.** 4.416 and 6.941 and 5.934 and 4.084 and 6.745 and 3.724 and 6.890

**Q.** What about the “BLOOD HIV COUNT RESULTS” value (HIV; [10]) of the same compound?
**A.** 2.60 × 10^4 copies/ml and 8.72 × 10^6 copies/ml and 8.59 × 10^5 copies/ml and 1.21 × 10^4 copies/ml and 5.56 × 10^6 copies/ml and 5.30 × 10^3 copies/ml and 7.77 × 10^6 copies/ml and undetectable

**Q.** And the “BLOOD HIV COUNT LOG VALUE” (HIV; 25 days after initial TPA, sample taken from the second cycle treatment (patients 10-12))?
**A.** 4.446 and 5.096 and 3.798

**Q.** What about the “change of viral load (summary of Table 2)” value (HIV; twelve patients) of the same compound?
**A.** five patients having an increase in HIV and no change or a reduction in seven others

**Q.** What about the HGB [1, 11] of the same compound?
**A.** 88 g/L and 1.38 g/L and 107 g/L and 1.35 g/L and 142 g/L and 143 g/L and 128 g/L and 57 g/L and 92 g/L and 99 g/L

**Q.** And the PLt [1, 11]?
**A.** 2.38e+11 L⁻¹ and 3.38e+11 L⁻¹ and 3.06e+11 L⁻¹ and 3.15e+11 L⁻¹ and 2.56e+11 L⁻¹ and 2.58e+11 L⁻¹ and 2.21e+11 L⁻¹ and 2.14e+11 L⁻¹ and 1.87e+11 L⁻¹ and 3.25e+11 L⁻¹

**Q.** What about the RBC [1, 11] of the same compound?
**A.** 2.14e+12 L⁻¹ and 3.83e+12 L⁻¹ and 2.92e+12 L⁻¹ and 3.46e+12 L⁻¹ and 3.48e+12 L⁻¹ and 3.76e+12 L⁻¹ and 3.86e+12 L⁻¹ and 1.99e+12 L⁻¹ and 2.58e+12 L⁻¹ and 2.61e+12 L⁻¹

**Q.** And the WBC [1, 11]?
**A.** 3.7e+09 L⁻¹ and 9.8e+09 L⁻¹ and 3.6e+09 L⁻¹ and 5.7e+09 L⁻¹ and 4.2e+09 L⁻¹ and 6e+09 L⁻¹ and 4.3e+09 L⁻¹ and 2.6e+09 L⁻¹ and 2.9e+09 L⁻¹ and 4.4e+09 L⁻¹

**Q.** And the HGB [1, 12]?
**A.** 102 g/L and 100 g/L and 140 g/L and 105 g/L and 144 g/L and 154 g/L and 123 g/L and 128 g/L and 67 g/L and 130 g/L

**Q.** What about the PLt [1, 12] of the same compound?
**A.** 182 ×10^9/L and 124 ×10^9/L and 549 ×10^9/L and 105 ×10^9/L and 130 ×10^9/L and 169 ×10^9/L and 293 ×10^9/L and 138 ×10^9/L (2×) and 170 ×10^9/L

**Q.** What about the RBC [1, 12] of the same compound?
**A.** 2.91e+12 L⁻¹ and 2.52e+12 L⁻¹ and 4.54e+12 L⁻¹ and 2.85e+12 L⁻¹ and 3.61e+12 L⁻¹ and 3.66e+12 L⁻¹ and 3.92e+12 L⁻¹ and 4.19e+12 L⁻¹ and 2.33e+12 L⁻¹ and 4.31e+12 L⁻¹

**Q.** And the WBC [1, 12]?
**A.** 6.1e+09 L⁻¹ and 1.11e+10 L⁻¹ and 1.36e+10 L⁻¹ and 9.2e+09 L⁻¹ and 1.01e+10 L⁻¹ and 6.5e+09 L⁻¹ and 6e+09 L⁻¹ and 6.8e+09 L⁻¹ and 4e+09 L⁻¹ and 7e+09 L⁻¹

**Q.** What about the “tumor in the pancreas” value ([2]; five injections of 0.18 mg TPA per week for 12 weeks in addition to chemotherapy, from 6.3 cm) of the same compound?
**A.** 2.4 cm

**Q.** And the “skin damage from radiation treatment” value ([2]; nasopharyngeal carcinoma patient)?
**A.** did not suffer any apparent skin damage

**Q.** And the remission ([2]; nasopharyngeal carcinoma patient, chemotherapy and radiotherapy plus 20 injections of 0.19 mg TPA)?
**A.** in remission for two and a half years

**Q.** What about the “side effects of chemotherapy” value ([2]; non-small-cell lung cancer patient, gemcitabine and cisplatin plus 0.19 mg TPA each weekday for eight weeks) of the same compound?
**A.** did not lose any hair and had significantly less nausea

**Q.** And the remission ([2]; non-small-cell lung cancer patient, gemcitabine and cisplatin plus TPA)?
**A.** in remission since Jun. 30, 2010

**Q.** What about the “side effects of chemotherapy” value ([2]; pancreatic cancer patient, TPA in addition to chemotherapy) of the same compound?
**A.** significantly less vomiting and nausea than in prior chemotherapy treatments without TPA

**Q.** And the recovery after stroke ([3]; stroke eighteen months before, 0.19, 0.24, 0.26 mg TPA every other day over 9 weeks)?
**A.** recovered fully

**Q.** What about the “mobility in their face” value ([3]; stroke seven years before, 35 injections of 0.19 mg TPA) of the same compound?
**A.** regained mobility in their face

**Q.** What about the “improvement in the mobility of their right side” value ([3]; stroke seven years before, 35 injections of 0.19 mg TPA in ten weeks) of the same compound?
**A.** 80%

**Q.** What about the “outcome, terminal lung cancer metastasized into bones” value (terminal lung cancer) of the same compound?
**A.** in remission and able to walk normally

**Q.** What about the “joint stiffness and hand function” value [4] of the same compound?
**A.** reduction in stiffness in the joints and an increase in functionality in their hands

**Q.** What about the CD3 ([5]; Sixty Days After TPA) of the same compound?
**A.** 902 and 2099 and 1305 and 317 and 579 and 2689

**Q.** And the CD4 ([5]; Sixty Days After TPA)?
**A.** 369 and 11 and 46 and 31 and 165 and 721

**Q.** And the CD8 ([5]; Sixty Days After TPA)?
**A.** 485 and 1507 and 1220 and 246 and 290 and 1897

**Q.** What about the CD3 ([5]; Thirty Days After TPA, 150 μg i.v. daily for 60 days) of the same compound?
**A.** 1522 and 1865 and 1477 and 594 and 703 and 2771

**Q.** What about the CD4 ([5]; Thirty Days After TPA) of the same compound?
**A.** 613 and 8 and 105 and 112 and 229 and 735

**Q.** What about the CD8 ([5]; Thirty Days After TPA) of the same compound?
**A.** 796 and 1408 and 1318 and 424 and 343 and 1938

**Q.** What about the use of hands [6] of the same compound?
**A.** regained full use of their hands
